Consider two compounds from ChEMBL document CHEMBL5465560, “Selectivity Literature for EUbOPEN Chemogenomic Library” (2024).

The structures appear in SMILES notation.

Assay [1] concerns the target Serine/threonine-protein kinase pim-2 (Homo sapiens, UniProt Q9P1W9). As to the kind of experiment: Selectivity interaction (KinomeScan (DiscoverX)) EUB0001066a PIM2. Particulars: at 1 µM.
Assay [2] concerns the target T1, 5-hydroxytryptamine receptor 2C (Homo sapiens) (UniProt P28335).
T1 sequence (whole entry): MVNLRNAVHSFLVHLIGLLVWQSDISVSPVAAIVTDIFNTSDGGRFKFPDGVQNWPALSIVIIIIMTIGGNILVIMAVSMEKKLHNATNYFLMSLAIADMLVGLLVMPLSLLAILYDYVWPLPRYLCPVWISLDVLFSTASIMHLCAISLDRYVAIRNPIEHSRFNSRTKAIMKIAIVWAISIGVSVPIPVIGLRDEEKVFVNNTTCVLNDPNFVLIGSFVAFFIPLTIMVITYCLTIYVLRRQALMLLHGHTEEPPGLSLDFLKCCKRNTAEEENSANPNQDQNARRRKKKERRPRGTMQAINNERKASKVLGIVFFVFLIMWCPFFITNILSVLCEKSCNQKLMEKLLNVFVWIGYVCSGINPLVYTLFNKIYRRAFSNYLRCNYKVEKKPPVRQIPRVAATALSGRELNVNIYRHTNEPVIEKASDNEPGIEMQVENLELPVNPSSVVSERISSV
As to the kind of experiment: Selectivity interaction (GPCR panel (PDSP screen)) EUB0001066a HTR2C. Particulars: at 10 µM.

For assay [3], the target named is T2, Serine/threonine-protein kinase NLK (Homo sapiens) (UniProt Q9UBE8).
T2 sequence (whole entry): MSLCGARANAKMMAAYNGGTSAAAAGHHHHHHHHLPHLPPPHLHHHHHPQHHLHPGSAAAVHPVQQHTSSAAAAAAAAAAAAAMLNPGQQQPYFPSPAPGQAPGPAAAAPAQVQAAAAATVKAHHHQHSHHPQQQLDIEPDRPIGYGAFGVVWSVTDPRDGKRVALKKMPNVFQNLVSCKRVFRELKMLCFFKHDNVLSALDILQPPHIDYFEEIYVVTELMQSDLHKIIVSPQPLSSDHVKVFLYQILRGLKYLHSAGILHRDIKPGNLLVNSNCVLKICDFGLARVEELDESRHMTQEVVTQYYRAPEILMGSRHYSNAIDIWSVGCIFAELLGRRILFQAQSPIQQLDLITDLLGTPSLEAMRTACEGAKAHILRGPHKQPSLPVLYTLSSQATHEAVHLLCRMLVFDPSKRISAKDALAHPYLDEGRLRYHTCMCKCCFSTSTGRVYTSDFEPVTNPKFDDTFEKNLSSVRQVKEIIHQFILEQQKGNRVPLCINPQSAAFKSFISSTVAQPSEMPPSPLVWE
As to the kind of experiment: Selectivity interaction (KinomeScan (DiscoverX)) EUB0001066a NLK. Particulars: at 1 µM.

Assay [4] relates to Mast/stem cell growth factor receptor Kit (Homo sapiens), P10721 [UNDEFINED MUTATION]. In words: Selectivity interaction (KinomeScan (DiscoverX)) EUB0001066a KIT. Particulars: at 1 µM.
Mast/stem cell growth factor receptor Kit (Homo sapiens), P10721 [UNDEFINED MUTATION], sequence (P10721 whole entry, looked up, change not shown): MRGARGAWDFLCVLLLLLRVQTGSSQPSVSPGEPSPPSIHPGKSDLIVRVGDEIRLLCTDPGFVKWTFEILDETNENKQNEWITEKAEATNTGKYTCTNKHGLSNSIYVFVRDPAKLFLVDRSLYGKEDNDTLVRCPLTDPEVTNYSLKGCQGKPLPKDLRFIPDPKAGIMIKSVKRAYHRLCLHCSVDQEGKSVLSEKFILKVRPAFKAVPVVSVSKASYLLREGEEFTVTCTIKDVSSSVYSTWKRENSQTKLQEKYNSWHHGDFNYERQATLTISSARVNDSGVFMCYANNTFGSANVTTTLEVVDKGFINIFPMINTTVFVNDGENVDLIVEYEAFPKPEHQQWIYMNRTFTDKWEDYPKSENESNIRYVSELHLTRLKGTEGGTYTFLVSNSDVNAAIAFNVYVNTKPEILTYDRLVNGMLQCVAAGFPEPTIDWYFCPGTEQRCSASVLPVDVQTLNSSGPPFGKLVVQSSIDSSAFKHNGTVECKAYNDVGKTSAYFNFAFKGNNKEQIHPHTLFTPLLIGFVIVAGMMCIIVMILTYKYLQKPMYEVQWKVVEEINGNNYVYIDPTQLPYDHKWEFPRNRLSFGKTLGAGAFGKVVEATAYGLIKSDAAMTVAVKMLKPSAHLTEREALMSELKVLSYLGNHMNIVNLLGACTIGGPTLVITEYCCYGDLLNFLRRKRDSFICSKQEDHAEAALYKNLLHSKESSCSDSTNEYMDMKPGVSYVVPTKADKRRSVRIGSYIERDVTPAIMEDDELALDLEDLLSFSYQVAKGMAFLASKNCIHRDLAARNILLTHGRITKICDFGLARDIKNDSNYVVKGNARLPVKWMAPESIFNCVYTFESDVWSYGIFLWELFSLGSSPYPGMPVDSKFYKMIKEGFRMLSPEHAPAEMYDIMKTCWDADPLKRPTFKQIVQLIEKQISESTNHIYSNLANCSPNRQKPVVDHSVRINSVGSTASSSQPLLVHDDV
Assay [5] has as its target T3, Alpha-1B adrenergic receptor (Homo sapiens) (UniProt P35368).
T3 sequence (whole entry): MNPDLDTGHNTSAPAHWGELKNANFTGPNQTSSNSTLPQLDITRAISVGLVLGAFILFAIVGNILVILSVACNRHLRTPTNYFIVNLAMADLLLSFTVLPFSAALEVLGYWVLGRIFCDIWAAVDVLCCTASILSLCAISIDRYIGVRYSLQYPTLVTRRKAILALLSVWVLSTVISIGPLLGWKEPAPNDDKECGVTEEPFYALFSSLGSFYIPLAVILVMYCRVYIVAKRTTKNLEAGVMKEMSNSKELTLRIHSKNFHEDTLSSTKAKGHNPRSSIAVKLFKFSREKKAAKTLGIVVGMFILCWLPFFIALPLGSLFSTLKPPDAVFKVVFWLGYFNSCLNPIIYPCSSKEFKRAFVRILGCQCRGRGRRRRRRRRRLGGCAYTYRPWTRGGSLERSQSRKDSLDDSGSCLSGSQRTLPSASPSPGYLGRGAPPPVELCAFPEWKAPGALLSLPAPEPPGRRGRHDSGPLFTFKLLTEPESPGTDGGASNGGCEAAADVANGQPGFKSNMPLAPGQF
As to the kind of experiment: Selectivity interaction (GPCR panel (PDSP screen)) EUB0001066a ADRA1B. Particulars: at 10 µM.

Assay [6] addresses 5-hydroxytryptamine receptor 1E (Homo sapiens) (UniProt P28566). As to the kind of experiment: Selectivity interaction (GPCR panel (PDSP screen)) EUB0001066a HTR1E. To be noted: at 10 µM.
Assay [7] concerns the target Serine/threonine-protein kinase VRK2 (Homo sapiens) (UniProt Q86Y07). In words: Selectivity interaction (KinomeScan (DiscoverX)) EUB0001066a VRK2. Particulars: at 1 µM.
The target of assay [8] is Muscarinic acetylcholine receptor M3 (Homo sapiens, UniProt P20309). In words: Selectivity interaction (Eurofins Cerep-Panlabs Safety Screen 44 (GPCRS, Transporters, Ion Channels, Nuclear Receptors, other enzymes)) EUB0000878a CHRM3. To be noted: at 10 µM.
Assay [9] addresses T4, Muscarinic acetylcholine receptor M1 (Homo sapiens) (UniProt P11229).
T4 sequence (whole entry): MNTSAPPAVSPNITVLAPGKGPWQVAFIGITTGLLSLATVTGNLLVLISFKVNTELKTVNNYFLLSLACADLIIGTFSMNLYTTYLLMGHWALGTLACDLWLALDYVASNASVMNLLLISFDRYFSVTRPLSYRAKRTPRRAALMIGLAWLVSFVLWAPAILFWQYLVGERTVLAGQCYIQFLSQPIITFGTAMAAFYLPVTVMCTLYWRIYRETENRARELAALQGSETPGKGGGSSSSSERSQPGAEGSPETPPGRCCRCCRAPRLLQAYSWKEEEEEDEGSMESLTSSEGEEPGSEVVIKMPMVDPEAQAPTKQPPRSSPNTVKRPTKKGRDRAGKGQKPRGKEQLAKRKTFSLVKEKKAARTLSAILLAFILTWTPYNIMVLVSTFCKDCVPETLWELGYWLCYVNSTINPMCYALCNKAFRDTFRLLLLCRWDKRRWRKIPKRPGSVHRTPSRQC
As to the kind of experiment: Selectivity interaction (Eurofins Cerep-Panlabs Safety Screen 44 (GPCRS, Transporters, Ion Channels, Nuclear Receptors, other enzymes)) EUB0000878a CHRM1. To be noted: at 10 µM.

Assay [10] addresses Sodium-dependent dopamine transporter (Homo sapiens, UniProt Q01959). As to the kind of experiment: Selectivity interaction (Eurofins Cerep-Panlabs Safety Screen 44 (GPCRS, Transporters, Ion Channels, Nuclear Receptors, other enzymes)) EUB0000878a SLC6A3. To be noted: at 10 µM.
Assay [11] has as its target Sodium-dependent noradrenaline transporter (Homo sapiens, UniProt P23975). In words: Selectivity interaction (Eurofins Cerep-Panlabs Safety Screen 44 (GPCRS, Transporters, Ion Channels, Nuclear Receptors, other enzymes)) EUB0000878a SLC6A2. To be noted: at 10 µM.
Assay [12] has as its target Phosphatidylinositol 4-phosphate 5-kinase type-1 gamma (Homo sapiens) (UniProt O60331). As to the kind of experiment: Selectivity interaction (KinomeScan (DiscoverX)) EUB0000878a PIP5K1C. To be noted: at 1 µM.
In assay [13] the target is T5, Dual specificity mitogen-activated protein kinase kinase 5 (Homo sapiens) (UniProt Q13163).
T5 sequence (whole entry): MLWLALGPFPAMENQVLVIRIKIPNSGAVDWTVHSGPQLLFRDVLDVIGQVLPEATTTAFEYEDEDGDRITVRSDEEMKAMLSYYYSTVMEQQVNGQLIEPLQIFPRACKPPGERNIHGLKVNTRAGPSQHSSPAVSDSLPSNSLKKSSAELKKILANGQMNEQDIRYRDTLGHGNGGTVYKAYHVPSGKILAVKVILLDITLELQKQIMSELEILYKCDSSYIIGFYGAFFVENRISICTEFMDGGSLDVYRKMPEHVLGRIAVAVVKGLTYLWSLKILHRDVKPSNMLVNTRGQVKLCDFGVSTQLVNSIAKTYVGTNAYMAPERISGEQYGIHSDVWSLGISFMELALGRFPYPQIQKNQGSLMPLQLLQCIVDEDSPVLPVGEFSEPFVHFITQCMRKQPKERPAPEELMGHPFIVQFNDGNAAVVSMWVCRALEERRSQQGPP
As to the kind of experiment: Selectivity interaction (KinomeScan (DiscoverX)) EUB0000878a MAP2K5. To be noted: at 1 µM.

Assay [14] deals with Mitogen-activated protein kinase kinase kinase 11 (Homo sapiens) (UniProt Q16584). In words: Selectivity interaction (KinomeScan (DiscoverX)) EUB0000878a MAP3K11. To be noted: at 1 µM.
Mitogen-activated protein kinase kinase kinase 11 (Homo sapiens), sequence (Q16584 whole entry, looked up): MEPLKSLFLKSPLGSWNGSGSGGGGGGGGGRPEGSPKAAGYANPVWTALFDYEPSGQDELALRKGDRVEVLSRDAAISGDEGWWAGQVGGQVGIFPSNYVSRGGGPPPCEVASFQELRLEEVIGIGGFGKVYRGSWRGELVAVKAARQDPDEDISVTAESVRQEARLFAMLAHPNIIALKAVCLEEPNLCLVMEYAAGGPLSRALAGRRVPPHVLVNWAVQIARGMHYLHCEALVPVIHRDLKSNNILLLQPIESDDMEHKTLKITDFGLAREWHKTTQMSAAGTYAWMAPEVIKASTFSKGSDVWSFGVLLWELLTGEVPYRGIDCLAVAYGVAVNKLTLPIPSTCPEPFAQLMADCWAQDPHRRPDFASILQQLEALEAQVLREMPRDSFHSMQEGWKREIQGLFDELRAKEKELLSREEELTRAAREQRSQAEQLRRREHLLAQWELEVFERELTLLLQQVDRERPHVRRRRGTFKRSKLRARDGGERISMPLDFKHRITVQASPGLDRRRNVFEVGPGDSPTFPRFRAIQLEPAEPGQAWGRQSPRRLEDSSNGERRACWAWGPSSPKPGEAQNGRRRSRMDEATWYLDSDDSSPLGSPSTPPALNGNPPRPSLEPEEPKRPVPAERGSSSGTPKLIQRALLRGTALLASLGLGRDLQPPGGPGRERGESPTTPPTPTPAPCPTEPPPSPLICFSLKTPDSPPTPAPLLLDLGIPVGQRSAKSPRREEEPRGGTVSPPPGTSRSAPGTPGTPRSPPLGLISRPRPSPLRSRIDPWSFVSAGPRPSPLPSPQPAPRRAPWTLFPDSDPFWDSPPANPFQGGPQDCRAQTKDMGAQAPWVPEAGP
Assay [15] has as its target T6, Muscarinic acetylcholine receptor M2 (Homo sapiens) (UniProt P08172).
T6 sequence (whole entry): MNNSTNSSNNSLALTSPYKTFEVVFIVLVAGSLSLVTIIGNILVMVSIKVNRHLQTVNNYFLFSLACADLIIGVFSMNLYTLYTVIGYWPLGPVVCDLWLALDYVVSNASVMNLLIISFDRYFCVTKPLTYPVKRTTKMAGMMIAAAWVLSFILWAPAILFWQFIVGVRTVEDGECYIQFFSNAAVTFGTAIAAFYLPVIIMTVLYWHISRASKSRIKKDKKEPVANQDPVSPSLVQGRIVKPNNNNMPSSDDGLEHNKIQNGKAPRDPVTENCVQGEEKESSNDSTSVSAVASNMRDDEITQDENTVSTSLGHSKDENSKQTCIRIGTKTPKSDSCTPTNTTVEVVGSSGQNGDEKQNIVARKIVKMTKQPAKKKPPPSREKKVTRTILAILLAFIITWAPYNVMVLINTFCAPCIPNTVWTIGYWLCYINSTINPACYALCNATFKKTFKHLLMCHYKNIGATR
As to the kind of experiment: Selectivity interaction (Eurofins Cerep-Panlabs Safety Screen 44 (GPCRS, Transporters, Ion Channels, Nuclear Receptors, other enzymes)) EUB0000878a CHRM2. Particulars: at 10 µM.

For assay [16], the target named is T7, Receptor-interacting serine/threonine-protein kinase 4 (Homo sapiens) (UniProt P57078).
T7 sequence (whole entry): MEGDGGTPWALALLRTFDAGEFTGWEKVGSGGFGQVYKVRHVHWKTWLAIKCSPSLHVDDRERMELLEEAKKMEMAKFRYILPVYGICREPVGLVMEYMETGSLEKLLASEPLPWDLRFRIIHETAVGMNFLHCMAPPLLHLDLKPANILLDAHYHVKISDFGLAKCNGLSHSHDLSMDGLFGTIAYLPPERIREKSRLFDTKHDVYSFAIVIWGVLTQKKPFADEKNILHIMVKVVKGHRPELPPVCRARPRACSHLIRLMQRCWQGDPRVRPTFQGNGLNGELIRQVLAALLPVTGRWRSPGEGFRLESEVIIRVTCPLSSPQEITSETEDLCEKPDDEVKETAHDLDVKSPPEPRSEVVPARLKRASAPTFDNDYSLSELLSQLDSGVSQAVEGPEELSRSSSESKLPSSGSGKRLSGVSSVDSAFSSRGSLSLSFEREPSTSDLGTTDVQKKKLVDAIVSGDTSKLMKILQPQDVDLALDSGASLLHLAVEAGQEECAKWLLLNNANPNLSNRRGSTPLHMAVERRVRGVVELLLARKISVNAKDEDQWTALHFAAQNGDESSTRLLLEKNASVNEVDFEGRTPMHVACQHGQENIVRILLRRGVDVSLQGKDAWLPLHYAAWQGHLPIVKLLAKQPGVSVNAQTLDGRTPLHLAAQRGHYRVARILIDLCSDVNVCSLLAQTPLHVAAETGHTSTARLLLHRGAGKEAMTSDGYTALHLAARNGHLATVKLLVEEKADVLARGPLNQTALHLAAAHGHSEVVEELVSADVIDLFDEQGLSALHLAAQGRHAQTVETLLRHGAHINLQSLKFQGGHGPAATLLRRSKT
In words: Selectivity interaction (KinomeScan (DiscoverX)) EUB0000878a RIPK4. Particulars: at 1 µM.

Phosphatidylinositol 4-phosphate 5-kinase type-1 gamma (Homo sapiens), sequence (O60331 whole entry): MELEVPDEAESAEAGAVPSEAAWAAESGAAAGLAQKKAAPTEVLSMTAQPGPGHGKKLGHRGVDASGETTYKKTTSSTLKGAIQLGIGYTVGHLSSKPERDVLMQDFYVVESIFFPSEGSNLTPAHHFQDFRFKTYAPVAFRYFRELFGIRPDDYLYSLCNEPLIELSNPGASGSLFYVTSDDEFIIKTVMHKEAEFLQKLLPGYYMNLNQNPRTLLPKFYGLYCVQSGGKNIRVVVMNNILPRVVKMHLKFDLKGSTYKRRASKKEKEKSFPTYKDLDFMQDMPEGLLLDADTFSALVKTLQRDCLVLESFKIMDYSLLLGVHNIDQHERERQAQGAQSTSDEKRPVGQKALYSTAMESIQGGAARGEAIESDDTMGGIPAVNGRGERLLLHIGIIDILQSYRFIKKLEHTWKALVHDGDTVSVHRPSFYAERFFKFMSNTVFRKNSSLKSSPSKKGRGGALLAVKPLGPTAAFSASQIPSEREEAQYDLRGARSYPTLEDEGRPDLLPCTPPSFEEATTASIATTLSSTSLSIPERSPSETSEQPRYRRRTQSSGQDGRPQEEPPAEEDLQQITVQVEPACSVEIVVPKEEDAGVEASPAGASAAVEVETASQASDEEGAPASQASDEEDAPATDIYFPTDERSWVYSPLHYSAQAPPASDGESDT
Serine/threonine-protein kinase VRK2 (Homo sapiens), sequence (Q86Y07 whole entry): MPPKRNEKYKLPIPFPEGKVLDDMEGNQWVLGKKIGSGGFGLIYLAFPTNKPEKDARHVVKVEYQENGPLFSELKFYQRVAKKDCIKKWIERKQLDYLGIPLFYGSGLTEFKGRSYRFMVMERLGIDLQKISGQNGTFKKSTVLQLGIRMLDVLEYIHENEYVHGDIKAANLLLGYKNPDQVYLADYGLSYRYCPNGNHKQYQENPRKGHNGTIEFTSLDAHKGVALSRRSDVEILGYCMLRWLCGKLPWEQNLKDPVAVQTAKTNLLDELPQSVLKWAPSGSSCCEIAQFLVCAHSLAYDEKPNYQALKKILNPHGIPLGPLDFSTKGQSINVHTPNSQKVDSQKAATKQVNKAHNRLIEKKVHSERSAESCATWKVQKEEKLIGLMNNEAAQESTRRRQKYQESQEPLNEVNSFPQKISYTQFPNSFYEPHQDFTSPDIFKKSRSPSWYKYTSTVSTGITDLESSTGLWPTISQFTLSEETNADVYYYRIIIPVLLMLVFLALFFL
Sodium-dependent noradrenaline transporter, sequence (P23975 whole entry): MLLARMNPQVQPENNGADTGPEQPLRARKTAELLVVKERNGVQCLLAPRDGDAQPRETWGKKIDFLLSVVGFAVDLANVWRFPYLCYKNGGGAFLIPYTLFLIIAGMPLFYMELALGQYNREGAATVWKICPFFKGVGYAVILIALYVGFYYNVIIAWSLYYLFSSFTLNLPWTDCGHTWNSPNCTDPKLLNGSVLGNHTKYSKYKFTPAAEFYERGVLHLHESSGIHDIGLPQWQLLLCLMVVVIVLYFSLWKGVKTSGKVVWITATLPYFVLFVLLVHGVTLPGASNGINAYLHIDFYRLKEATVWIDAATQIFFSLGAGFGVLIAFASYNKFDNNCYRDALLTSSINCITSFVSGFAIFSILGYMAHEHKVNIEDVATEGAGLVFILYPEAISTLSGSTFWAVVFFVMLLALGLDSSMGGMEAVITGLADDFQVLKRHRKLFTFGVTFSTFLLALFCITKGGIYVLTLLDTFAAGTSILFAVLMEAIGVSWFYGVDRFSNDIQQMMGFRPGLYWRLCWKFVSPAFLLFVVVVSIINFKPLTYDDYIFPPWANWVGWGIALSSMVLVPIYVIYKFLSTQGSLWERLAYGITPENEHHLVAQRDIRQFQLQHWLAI
Serine/threonine-protein kinase pim-2, sequence (Q9P1W9 whole entry, looked up): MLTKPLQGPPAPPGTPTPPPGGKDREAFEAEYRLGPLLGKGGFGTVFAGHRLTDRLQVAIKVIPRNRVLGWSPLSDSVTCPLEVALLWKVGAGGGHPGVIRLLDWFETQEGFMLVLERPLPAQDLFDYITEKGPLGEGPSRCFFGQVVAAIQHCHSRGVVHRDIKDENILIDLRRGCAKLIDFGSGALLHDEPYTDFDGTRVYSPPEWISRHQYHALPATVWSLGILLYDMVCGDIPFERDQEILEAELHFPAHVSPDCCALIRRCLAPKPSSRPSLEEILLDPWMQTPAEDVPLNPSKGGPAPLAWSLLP
Sodium-dependent dopamine transporter, sequence (Q01959 whole entry): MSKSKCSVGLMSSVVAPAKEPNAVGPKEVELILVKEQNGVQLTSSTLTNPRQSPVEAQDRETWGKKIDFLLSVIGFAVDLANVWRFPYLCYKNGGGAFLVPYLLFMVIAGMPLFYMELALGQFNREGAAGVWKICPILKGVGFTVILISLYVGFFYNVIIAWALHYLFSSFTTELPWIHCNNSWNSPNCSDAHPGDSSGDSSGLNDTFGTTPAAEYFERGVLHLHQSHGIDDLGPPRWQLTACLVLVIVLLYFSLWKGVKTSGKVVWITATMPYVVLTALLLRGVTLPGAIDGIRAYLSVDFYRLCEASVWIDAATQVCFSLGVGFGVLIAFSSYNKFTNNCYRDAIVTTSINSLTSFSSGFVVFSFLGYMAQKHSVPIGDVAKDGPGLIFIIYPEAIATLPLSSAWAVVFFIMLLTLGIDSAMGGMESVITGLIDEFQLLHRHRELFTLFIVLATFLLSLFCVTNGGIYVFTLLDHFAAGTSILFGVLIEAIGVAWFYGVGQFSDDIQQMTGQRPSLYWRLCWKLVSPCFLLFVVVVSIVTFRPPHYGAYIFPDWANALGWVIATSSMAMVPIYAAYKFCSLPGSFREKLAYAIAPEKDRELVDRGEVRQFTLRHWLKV
5-hydroxytryptamine receptor 1E (Homo sapiens), sequence (P28566 whole entry): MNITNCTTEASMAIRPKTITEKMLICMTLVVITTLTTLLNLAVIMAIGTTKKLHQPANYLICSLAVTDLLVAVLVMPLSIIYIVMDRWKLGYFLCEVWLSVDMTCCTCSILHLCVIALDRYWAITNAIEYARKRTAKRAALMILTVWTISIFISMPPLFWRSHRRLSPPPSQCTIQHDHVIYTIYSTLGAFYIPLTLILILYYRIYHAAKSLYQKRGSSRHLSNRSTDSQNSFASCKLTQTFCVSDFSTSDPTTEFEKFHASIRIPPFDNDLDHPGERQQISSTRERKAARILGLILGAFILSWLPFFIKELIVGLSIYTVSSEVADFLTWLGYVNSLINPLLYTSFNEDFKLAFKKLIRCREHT

On to `Cc1nccc(COC(=O)N2C[C@@H]3[C@@H](CNC(=O)c4ccc5[nH]nnc5c4)[C@@H]3C2)n1`, for which the % of control in [1] is 0%; in [3] it was 41%; in assay [4], 41%; in [7] it was 29%. Moreover, the results for the % of inhibition in assay [2], in [5] and in assay [6] were 31.1%, 30.2% and 31.8%, respectively.

For the compound `CC(C)c1cc(Nc2nc(N3CCC[C@H](N)C3)ncc2C(N)=O)cc(C(C)C)n1`, the % of inhibition or stimulation in assay [8] is 84%; in assay [9], 84%; in assay [10], 100%; in [11], 87%; in [15], 70%. Also, the % of control in assay [12] was 0%; in assay [13] it was 4.5%; in assay [14], 99%; in [16] it was 0.95%.
